Laboratory results published in ChEMBL document CHEMBL1201862, “PubChem BioAssay data set” (2004).
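Interpolation was linear, between the two tested concentrations surrounding the appropriate level; five concentrations were tested over 48 hours in 96-well plates. GI50 is the concentration that inhibits growth by half.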 Activity calls are given as the source filed them. Rule as the data show it: active = GI50 up to about 1.1 µM and inactive = higher.

Legend:
Assay in all cases: NCI-60 cell line screen, 48 h
SF-268 = test system: SF-268
EKVX = test system: EKVX
UO-31 = test system: UO-31
OVCAR-4 = test system: OVCAR-4
OVCAR-8 = test system: OVCAR-8
NCI/ADR-RES = test system: NCI/ADR-RES
SW-620 = test system: SW-620
HCC 2998 = test system: HCC 2998
MDA-N = test system: MDA-N
HCT-15 = test system: HCT-15
MOLT-4 = test system: MOLT-4
Malme-3M = test system: Malme-3M
HOP-62 = test system: HOP-62
SNB-19 = test system: SNB-19
ACHN = test system: ACHN
HL-60 = test system: HL-60
RPMI-8226 = test system: RPMI-8226
MCF7 = test system: MCF7
SK-OV-3 = test system: SK-OV-3
Hs-578T = test system: Hs-578T

SMILES | GI50 (SF-268) | GI50 (EKVX) | GI50 (UO-31) | GI50 (OVCAR-4) | GI50 (OVCAR-8) | GI50 (NCI/ADR-RES) | GI50 (SW-620) | GI50 (HCC 2998) | GI50 (MDA-N) | GI50 (HCT-15) [µM] | GI50 (MOLT-4) | GI50 (Malme-3M) | GI50 (HOP-62) | GI50 (SNB-19) | GI50 (ACHN) | GI50 (HL-60) | GI50 (RPMI-8226) | GI50 (MCF7) | GI50 (SK-OV-3) | GI50 (Hs-578T)
Cc1cc(S(=O)(=O)Nc2nc(N)nc(N(C)C)n2)c(S)cc1Cl | > 10 µM (inactive) | > 10 µM (inactive) | > 10 µM (inactive) | > 10 µM (inactive) | > 10 µM (inactive) | > 10 µM (inactive) | > 10 µM (inactive) | > 10 µM (inactive) | > 10 µM (inactive) | > 10 | > 10 µM (inactive) | > 10 µM (inactive) | > 10 µM (inactive) | > 10 µM (inactive) | > 10 µM (inactive) | > 10 µM (inactive) | > 10 µM (inactive) | > 10 µM (inactive) | > 10 µM (inactive) | –
COc1ccc(C(=O)O/N=C2/CCC/C2=C\c2ccccc2)cc1 | > 81.8 µM (inactive) | > 100 µM (inactive) | > 100 µM (inactive) | > 66.1 µM (inactive) | > 100 µM (inactive) | – | > 100 µM (inactive) | > 100 µM (inactive) | – | > 100 | > 100 µM (inactive) | > 100 µM (inactive) | > 100 µM (inactive) | > 100 µM (inactive) | > 94.8 µM (inactive) | > 85.9 µM (inactive) | > 100 µM (inactive) | – | > 100 µM (inactive) | –
COC(=O)[C@@H]1CCCN1CCN1CCC[C@H]1C(=O)OC | > 100 µM (inactive) | – | > 100 µM (inactive) | > 100 µM (inactive) | > 100 µM (inactive) | > 100 µM (inactive) | > 100 µM (inactive) | – | > 100 µM (inactive) | > 100 | > 100 µM (inactive) | > 100 µM (inactive) | > 100 µM (inactive) | > 100 µM (inactive) | > 100 µM (inactive) | – | > 100 µM (inactive) | > 100 µM (inactive) | > 100 µM (inactive) | –
COc1cccc2c1CCc1cc3c(N)nc(N)nc3nc1-2 | 6.73 µM (inactive) | 2.12 µM (inactive) | 3.21 µM (inactive) | 6.22 µM (inactive) | 3.31 µM (inactive) | 16.7 µM (inactive) | 3.65 µM (inactive) | 2.29 µM (inactive) | 2.94 µM (inactive) | 5.21 | 0.653 µM (active) | 5.14 µM (inactive) | 5.4 µM (inactive) | 5.45 µM (inactive) | 5.75 µM (inactive) | – | 2.12 µM (inactive) | 6.31 µM (inactive) | 17.7 µM (inactive) | –
CCOC(=O)/C(=C\c1ccc(O)c(OC)c1)C(=O)c1ccccc1 | 9.62 µM (inactive) | > 38.9 µM (inactive) | 23 µM (inactive) | 13.9 µM (inactive) | 11.7 µM (inactive) | – | 13.1 µM (inactive) | 19.6 µM (inactive) | – | 8.75 | 12.4 µM (inactive) | 18.6 µM (inactive) | > 10 µM (inactive) | 16.5 µM (inactive) | 15.8 µM (inactive) | 10.4 µM (inactive) | 9.77 µM (inactive) | – | > 42.8 µM (inactive) | –
O=C(CC(Cl)(Cl)C(Cl)(Cl)Cl)c1ccccc1 | 11.7 µM (inactive) | – | 3.94 µM (inactive) | 2.22 µM (inactive) | 2.59 µM (inactive) | 5.26 µM (inactive) | 3.51 µM (inactive) | – | – | 2.17 | 3.17 µM (inactive) | 2.71 µM (inactive) | 4.21 µM (inactive) | 17.4 µM (inactive) | 2.27 µM (inactive) | 8.99 µM (inactive) | 3.45 µM (inactive) | 3.65 µM (inactive) | 18.4 µM (inactive) | 3.76 µM (inactive)
CC1(C)CC(=O)C2=C(C1)NC1=C(C(=O)CC(C)(C)C1)C2c1ccc([N+](=O)[O-])cc1 | > 100 µM (inactive) | > 100 µM (inactive) | > 100 µM (inactive) | > 100 µM (inactive) | > 100 µM (inactive) | – | > 100 µM (inactive) | > 100 µM (inactive) | > 100 µM (inactive) | > 100 | > 100 µM (inactive) | – | > 100 µM (inactive) | > 100 µM (inactive) | > 100 µM (inactive) | > 100 µM (inactive) | > 100 µM (inactive) | > 100 µM (inactive) | > 100 µM (inactive) | > 100 µM (inactive)
Cc1sc(N/N=C2\C(=O)Nc3ccccc32)nc1-c1ccccc1 | 13.6 µM (inactive) | 11.1 µM (inactive) | 13.6 µM (inactive) | 13.9 µM (inactive) | 17.5 µM (inactive) | 17 µM (inactive) | 23.6 µM (inactive) | 22.2 µM (inactive) | 19.4 µM (inactive) | 9.38 | 12.6 µM (inactive) | – | 12 µM (inactive) | 16.6 µM (inactive) | 15.3 µM (inactive) | 4.23 µM (inactive) | – | 15.3 µM (inactive) | 14.9 µM (inactive) | –
CC(NC(=O)c1c(O)[nH]c(=S)[nH]c1=O)c1ccc([N+](=O)[O-])cc1 (stereo not drawn) | 52.8 µM (inactive) | > 100 µM (inactive) | > 100 µM (inactive) | 49 µM (inactive) | – | – | > 100 µM (inactive) | 35.8 µM (inactive) | > 100 µM (inactive) | > 100 | 29.1 µM (inactive) | – | 58.3 µM (inactive) | 57.5 µM (inactive) | > 100 µM (inactive) | > 100 µM (inactive) | > 100 µM (inactive) | 71 µM (inactive) | > 100 µM (inactive) | > 100 µM (inactive)
CCOc1cc(NC(C)=O)ccc1C(=O)NN1C(=O)/C(=C/c2ccc(Cl)cc2)N=C1c1ccccc1 | – | 26 µM (inactive) | 34.9 µM (inactive) | 22.3 µM (inactive) | 34 µM (inactive) | 42 µM (inactive) | > 100 µM (inactive) | – | 34.3 µM (inactive) | 35.6 | 17.7 µM (inactive) | – | 44.9 µM (inactive) | > 100 µM (inactive) | 51.1 µM (inactive) | 34.1 µM (inactive) | 25.9 µM (inactive) | 4.67 µM (inactive) | > 100 µM (inactive) | –
CCCCCCNC(=O)CCC(NC(=O)c1ccc(N(C)Cc2cnc3nc(N)nc(N)c3n2)cc1)C(=O)NCCCCCC (stereo not drawn) | > 100 µM (inactive) | 37.4 µM (inactive) | > 100 µM (inactive) | > 100 µM (inactive) | > 100 µM (inactive) | > 100 µM (inactive) | > 100 µM (inactive) | > 100 µM (inactive) | 9.89 µM (inactive) | > 100 | > 100 µM (inactive) | – | > 100 µM (inactive) | > 100 µM (inactive) | > 100 µM (inactive) | – | 37.8 µM (inactive) | 18.3 µM (inactive) | 17.7 µM (inactive) | –
Cc1cc(O)no1 [HYMEXAZOL] | > 100 µM (inactive) | > 100 µM (inactive) | > 100 µM (inactive) | > 100 µM (inactive) | > 100 µM (inactive) | > 100 µM (inactive) | > 100 µM (inactive) | > 100 µM (inactive) | – | > 100 | – | – | > 100 µM (inactive) | > 100 µM (inactive) | 18.9 µM (inactive) | – | > 100 µM (inactive) | > 100 µM (inactive) | > 100 µM (inactive) | > 100 µM (inactive)
